Series [1] concerns HEK 293 cells. Put plainly: Two-photon fluorescence labeling of non-cancer cells. Type of series: cell-based. To be noted: 4 μL probe-DMSO solution (4 μM), 60 min, 5% CO2, 37° C., PBS wash. The method, then:
(§1) FIG. 2 is the two-photon fluorescent imaging of fluorescent probe compound A1 in the tumor cells and non-tumor cells in example 2. Hela cells and HEK293 cells were incubated with 4 μL of A1-DMSO (4.0 μM) for 60 min in 5% CO2 at 37° C. The representative areas were selected and imaged with oil-immersion objective lens (100×). The resulting images are representative of replicate experiments (n=3). The images were recorded with the emission in the range of 500-550 nm. FIG. 2 (a) is confocal image of Hela cell, FIG. 2 (b) is confocal image of HEK293 cell.
(§2) FIG. 10 is two-photon fluorescent imaging of fluorescent probe compound A2 in the tumor cells and non-tumor cells in example 14. […] The images of FIG. 10 (a1) and (b1) were recorded with the emission in the range of 500-550 nm. The images of FIG. 10 (a2) and (b2) were recorded with the emission in the range of 570-650 nm.
(§3) Compound A1 was used, which was synthesized in the example 1. […] The fluorescence imaging was obtained with a two-photon spectral confocal multiphoton microscope. […] The images were recorded with the emission in the range of 500-550 nm.
(§4) Compound A5 was used, which was synthesized in the example 13. […] The fluorescence imaging was obtained with a two-photon spectral confocal multiphoton microscope. […] The images of FIG. 10(a1) and FIG. 10(b1) were recorded with the emission in the range of 500-550 nm. […]

In series [2] the test system is HeLa cells. Briefly: Two-photon fluorescence labeling of cancer cells. The following applies: 4 μL probe-DMSO solution (4 μM), 60 min, 5% CO2, 37° C., PBS wash. Format: cell-based. How it is done: as §1, §2, §3, §4
For series [3], the system named is tumor tissue sections of mice' lungs. Briefly: Two-photon fluorescence labeling of tumor tissue sections. To be noted: sections soaked in probe PBS solution (10 μM), 30 min. How it is done: (§5) FIG. 8 is the two-photon fluorescent imaging of fluorescent probe compound A4 for the tumor tissues and non-tumor tissues of mice' lungs in example 11. The sections of tumor tissues and non-tumor tissues of mice' lungs were incubated with 4 μL of A4 (10.0 μM). The representative areas were selected and imaged with oil-immersion objective lens (100×). The resulting images are representative of replicate experiments (n=3). FIG. 8 (a1) and (a2) are the confocal images of tumor tissue sections of mice' lungs after adding probe A4, FIG. 8 (b1) and (b2) are the confocal images of non-tumor tissue sections of mice' lungs after adding probe A4. The images of FIG. 8 (a1) and (b1) were recorded with the emission in the range of 500-550 nm. The images of FIG. 8 (a2) and (b2) were recorded with the emission in the range of 570-650 nm.
(§6) FIG. 11 is two-photon fluorescent imaging of fluorescent probe compound A5 for the tumor tissues and non-tumor tissues of mice' lungs in example 15. The sections of tumor tissues and non-tumor tissues of mice' lungs were incubated with 4 μL of […] (10.0 μM). The representative areas were selected and imaged with oil-immersion objective lens (100×). […] The images of FIG. 11 (a1) and (b1) were recorded with the emission in the range of 500-550 nm. The images of FIG. 11 (a2) and (b2) were recorded with the emission in the range of 570-650 nm.
(§7) Tumor tissue sections and non-tumor tissues sections of mice' lungs were soaked in the compound A2 PBS solution (10 μM), respectively. After 30 min, take out the section, mounting, safekeeping, the fluorescence images were obtained by two-photon spectral confocal multiphoton microscope. […] The images were recorded with the emission in the range of 500-550 nm.
(§8) Tumor tissue sections and non-tumor tissues sections of mice' lungs were soaked in the compound A4 PBS solution (10 μM), respectively. After 30 min, take out the section, mounting, safekeeping, the fluorescence images were obtained by two-photon spectral confocal multiphoton microscope. […] The images were recorded with the emission in the range of 500-550 nm. […]

The test system of series [4] is non-tumor tissue sections of mice' lungs. Briefly: Two-photon fluorescence labeling of non-tumor tissue sections. To be noted: sections soaked in probe PBS solution (10 μM), 30 min. The method, then:
as §5, §6, §7, §8

Series [5] can be described thus: physchem. The following applies: water.
Source text: (§9) The absorbance of different concentrations of compound A2 solution at maximum absorption wavelength was detected. The results are representative value from replicate experiments (n=3).
(§10) The absorbance of different concentrations of compound A4 solution at maximum absorption wavelength was detected. The results are representative value from replicate experiments (n=3).
(§11) The experiment instrument is Agilent 8453 U-V spectrophotometer.
The nature of series [6]: Water solubility experiment (absorbance vs concentration at maximum absorption wavelength).
Source text: as §9, §10, §11

In brackets after ≈: the same amount, converted by molar mass.

Turning to `COc1ccc2c(c1)c(CC(=O)NCCCCCCNc1ccc3c4c(cccc14)C(=O)N(C)C3=O)c(C)n2C(=O)c1ccc(Cl)cc1` [Compound A1], in series [1], the “fluorescence signal in HEK 293 cells (two-photon confocal imaging)” value was “no any fluorescence signal”. In series [2], the “fluorescence signal in HeLa cells (two-photon confocal imaging)” value is on record as “strong fluorescence signals”.

For the compound `COc1ccc2c(c1)c(CC(=O)NCCCCCCNc1ccc3c4c(cccc14)-c1nc4ccc([N+](=O)[O-])cc4nc1-3)c(C)n2C(=O)c1ccc(Cl)cc1` [Compound A5], in series [3], the “fluorescence signal in tumor tissue sections of mice' lungs (two-photon confocal imaging)” value was “strong fluorescence signals”. The “fluorescence signal in non-tumor tissue sections of mice' lungs (two-photon confocal imaging)” value in series [4] is given as “no any fluorescence signals”. For the same compound, in series [1], the “fluorescence signal in HEK 293 cells (two-photon confocal imaging)” value is reported as “no any fluorescence signal”. In addition, in series [2], the “fluorescence signal in HeLa cells (two-photon confocal imaging)” value is “strong fluorescence signals”.

`COc1ccc2c(c1)c(CC(=O)NCCCCCCNc1ccc3c4c(cccc14)-c1nc4ccccc4nc1-3)c(C)n2C(=O)c1ccc(Cl)cc1` [Compound A4]: the concentration in solution in series [5] (solubility) came to 24 µM (≈ 17 µg/mL). In series [3], the “fluorescence signal in tumor tissue sections of mice' lungs (two-photon confocal imaging)” value is recorded as “strong fluorescence signals”. Also, the “fluorescence signal in non-tumor tissue sections of mice' lungs (two-photon confocal imaging)” value in series [4] is reported as “no any fluorescence signals”.

Consider `COc1ccc2c(c1)c(CC(=O)NCCCCCCNc1ccc3c4c1cccc4c(=O)n1c4ccccc4nc31)c(C)n2C(=O)c1ccc(Cl)cc1` [Compound A2], for which the concentration in solution in series [6] (solubility) was 5 µM (≈ 3.62 µg/mL). The “fluorescence signal in tumor tissue sections of mice' lungs (two-photon confocal imaging)” value in series [3] is “strong fluorescence signals”. Further, the “fluorescence signal in non-tumor tissue sections of mice' lungs (two-photon confocal imaging)” value in series [4] is on record as “no any fluorescence signals”.

The record behind these values is US9182350B2, “Naphthalene-based two-photon fluorescent probes, preparation method and use thereof” (DALIAN UNIVERSITY OF TECHNOLOGY, priority 2012, dated 2015).
